What was measured:
ISC-enriched organoids [1] = test: Primary screen, 384-well 2.5-D organoid differentiation (ENR+CD, 6 days, Target Selective Inhibitor Library, vs whole-plate median): ATP (CellTiter-Glo 3D, CTG); conditions: for Dose.FC.CTG (log 2 fold change, ATP): vs plate median; for Dose.FC.CTG: FC vs plate median; for SSMD.CTG: strictly standardized mean difference
ISC-enriched organoids [2] = test: Primary screen, 384-well 2.5-D organoid differentiation (ENR+CD, 6 days): basal lysozyme secretion (LYZ.NS); format: cell-based, murine; conditions: for Dose.FC.LYZ.NS (log 2 fold change, basal lysozyme secretion): vs plate median; for Dose.FC.LYZ.NS: FC vs plate median; for SSMD.LYZ.NS: strictly standardized mean difference
Text: (§1) High-throughput screening.

ISC-enriched organoids [3] = test: Primary screen, 384-well 2.5-D organoid differentiation (ENR+CD, 6 days): carbachol-induced lysozyme secretion (LYZ.S); format: cell-based, murine; conditions: for Dose.FC.LYZ.S (log 2 fold change, carbachol-induced lysozyme secretion): vs plate median; for Dose.FC.LYZ.S: FC vs plate median; for Z.LYZ.S: standard z score; for SSMD.LYZ.S: strictly standardized mean difference
Text: as §1

[4] = Dose 0.08 uM, primary screen, standard z score
[5] = Dose 0.40 uM, primary screen, standard z score
[6] = Dose 2.00 uM, primary screen, standard z score
[7] = Dose 10.00 uM, primary screen, standard z score
[8] = primary screen, 1st of the 4 dose lines of the treatment (dose not given)
[9] = primary screen, 2nd of the 4 dose lines of the treatment (dose not given)
[10] = primary screen, 3rd of the 4 dose lines of the treatment (dose not given)
[11] = primary screen, 4th of the 4 dose lines of the treatment (dose not given)
[12] = Dose 0.08 uM, standard z score of FC
[13] = Dose 0.40 uM, standard z score of FC
[14] = Dose 2.00 uM, standard z score of FC
[15] = Dose 10.00 uM, standard z score of FC

SMILES: O=C(NCc1ccccc1)c1csc(Nc2ccncn2)n1 [Thiazovivin]
- Z.CTG (standard z score) (ISC-enriched organoids [1]; dose 0.08 uM): 0.337
- Dose.FC.CTG (log 2 fold change, ATP) (ISC-enriched organoids [1]; dose 0.08 uM): 0.141
- Z.CTG (standard z score) (ISC-enriched organoids [1]; dose 0.40 uM): 0.271
- Dose.FC.CTG (log 2 fold change, ATP) (ISC-enriched organoids [1]; dose 0.40 uM): 0.113
- Z.CTG (standard z score) (ISC-enriched organoids [1]; dose 2.00 uM): 0.746
- Dose.FC.CTG (log 2 fold change, ATP) (ISC-enriched organoids [1]; dose 2.00 uM): 0.312
- Z.CTG (standard z score) (ISC-enriched organoids [1]; dose 10.00 uM): 0.451
- Dose.FC.CTG (log 2 fold change, ATP) (ISC-enriched organoids [1]; dose 10.00 uM): 0.189
- Z.LYZ.NS (standard z score) (ISC-enriched organoids [2]; dose 0.08 uM): 0.780
- Dose.FC.LYZ.NS (log 2 fold change, basal lysozyme secretion) (ISC-enriched organoids [2]; dose 0.08 uM): 0.090
- Z.LYZ.NS (standard z score) (ISC-enriched organoids [2]; dose 0.40 uM): 0.611
- Dose.FC.LYZ.NS (log 2 fold change, basal lysozyme secretion) (ISC-enriched organoids [2]; dose 0.40 uM): 0.070
- Z.LYZ.NS (standard z score) (ISC-enriched organoids [2]; dose 2.00 uM): 0.205
- Dose.FC.LYZ.NS (log 2 fold change, basal lysozyme secretion) (ISC-enriched organoids [2]; dose 2.00 uM): 0.024
- Z.LYZ.NS (standard z score) (ISC-enriched organoids [2]; dose 10.00 uM): −0.605
- Dose.FC.LYZ.NS (log 2 fold change, basal lysozyme secretion) (ISC-enriched organoids [2]; dose 10.00 uM): −0.069
- Dose.FC.LYZ.S (log 2 fold change, carbachol-induced lysozyme secretion) (ISC-enriched organoids [3]; dose 0.08 uM): 0.142
- Dose.FC.LYZ.S (log 2 fold change, carbachol-induced lysozyme secretion) (ISC-enriched organoids [3]; dose 0.40 uM): 0.060
- Dose.FC.LYZ.S (log 2 fold change, carbachol-induced lysozyme secretion) (ISC-enriched organoids [3]; dose 2.00 uM): 0.064
- Dose.FC.LYZ.S (log 2 fold change, carbachol-induced lysozyme secretion) (ISC-enriched organoids [3]; dose 10.00 uM): 0.037

SMILES: Clc1ccc(N/N=C(\c2ccccc2)c2ccccn2)nc1 [JIB-04]
- Dose.FC.CTG (ISC-enriched organoids [1]; Dose 0.08 uM, primary screen): 0.254 log 2 fold change
- Z.CTG (ISC-enriched organoids [1]; [4]): 0.607
- Dose.FC.CTG (ISC-enriched organoids [1]; Dose 0.40 uM, primary screen): 0.108 log 2 fold change
- Z.CTG (ISC-enriched organoids [1]; [5]): 0.258
- Dose.FC.CTG (ISC-enriched organoids [1]; Dose 2.00 uM, primary screen): 0.092 log 2 fold change
- Z.CTG (ISC-enriched organoids [1]; [6]): 0.219
- Dose.FC.CTG (ISC-enriched organoids [1]; Dose 10.00 uM, primary screen): −0.181 log 2 fold change
- Z.CTG (ISC-enriched organoids [1]; [7]): −0.433
- SSMD.CTG (ISC-enriched organoids [1]; [8]): 0.552
- SSMD.CTG (ISC-enriched organoids [1]; [9]): 0.331
- SSMD.CTG (ISC-enriched organoids [1]; [10]): 0.282
- SSMD.CTG (ISC-enriched organoids [1]; [11]): −0.531
- Dose.FC.LYZ.NS (ISC-enriched organoids [2]; Dose 0.08 uM, primary screen): 0.178 log 2 fold change
- Z.LYZ.NS (ISC-enriched organoids [2]; [4]): 1.549
- Dose.FC.LYZ.NS (ISC-enriched organoids [2]; Dose 0.40 uM, primary screen): 0.030 log 2 fold change
- Z.LYZ.NS (ISC-enriched organoids [2]; [5]): 0.264
- Dose.FC.LYZ.NS (ISC-enriched organoids [2]; Dose 2.00 uM, primary screen): 0.006 log 2 fold change
- Z.LYZ.NS (ISC-enriched organoids [2]; [6]): 0.048
- Dose.FC.LYZ.NS (ISC-enriched organoids [2]; Dose 10.00 uM, primary screen): −0.153 log 2 fold change
- Z.LYZ.NS (ISC-enriched organoids [2]; [7]): −1.330
- SSMD.LYZ.NS (ISC-enriched organoids [2]; [8]): 0.941
- SSMD.LYZ.NS (ISC-enriched organoids [2]; [9]): 0.239
- SSMD.LYZ.NS (ISC-enriched organoids [2]; [10]): 0.042
- SSMD.LYZ.NS (ISC-enriched organoids [2]; [11]): −0.845
- Dose.FC.LYZ.S (ISC-enriched organoids [3]; Dose 0.08 uM, primary screen): 0.203 log 2 fold change
- Dose.FC.LYZ.S (ISC-enriched organoids [3]; Dose 0.40 uM, primary screen): 0.084 log 2 fold change
- Dose.FC.LYZ.S (ISC-enriched organoids [3]; Dose 2.00 uM, primary screen): −0.056 log 2 fold change
- Dose.FC.LYZ.S (ISC-enriched organoids [3]; Dose 10.00 uM, primary screen): −0.085 log 2 fold change
- Z.LYZ.S (ISC-enriched organoids [3]; [8]): 1.312
- Z.LYZ.S (ISC-enriched organoids [3]; [9]): 0.545
- Z.LYZ.S (ISC-enriched organoids [3]; [10]): −0.365
- Z.LYZ.S (ISC-enriched organoids [3]; [11]): −0.552
- SSMD.LYZ.S (ISC-enriched organoids [3]; [8]): 0.895
- SSMD.LYZ.S (ISC-enriched organoids [3]; [9]): 0.407
- SSMD.LYZ.S (ISC-enriched organoids [3]; [10]): −0.339
- SSMD.LYZ.S (ISC-enriched organoids [3]; [11]): −0.195

SMILES: Cc1cccc(CC(=O)N2CCc3c2ccc(-c2cn(C)c4ncnc(N)c24)c3F)n1 [GSK2656157]
- Dose.FC.CTG (ISC-enriched organoids [1]; Dose 0.08 uM, primary screen): 0.068 log 2 fold change
- Z.CTG (ISC-enriched organoids [1]; [4]): 0.162
- Dose.FC.CTG (ISC-enriched organoids [1]; Dose 0.40 uM, primary screen): 0.115 log 2 fold change
- Z.CTG (ISC-enriched organoids [1]; [5]): 0.274
- Dose.FC.CTG (ISC-enriched organoids [1]; Dose 2.00 uM, primary screen): 0.083 log 2 fold change
- Z.CTG (ISC-enriched organoids [1]; [6]): 0.197
- Dose.FC.CTG (ISC-enriched organoids [1]; Dose 10.00 uM, primary screen): 0.119 log 2 fold change
- Z.CTG (ISC-enriched organoids [1]; [7]): 0.284
- Dose.FC.LYZ.NS (ISC-enriched organoids [2]; Dose 0.08 uM, primary screen): −0.031 log 2 fold change
- Z.LYZ.NS (ISC-enriched organoids [2]; [4]): −0.267
- Dose.FC.LYZ.NS (ISC-enriched organoids [2]; Dose 0.40 uM, primary screen): −0.045 log 2 fold change
- Z.LYZ.NS (ISC-enriched organoids [2]; [5]): −0.396
- Dose.FC.LYZ.NS (ISC-enriched organoids [2]; Dose 2.00 uM, primary screen): −0.033 log 2 fold change
- Z.LYZ.NS (ISC-enriched organoids [2]; [6]): −0.291
- Dose.FC.LYZ.NS (ISC-enriched organoids [2]; Dose 10.00 uM, primary screen): −0.012 log 2 fold change
- Z.LYZ.NS (ISC-enriched organoids [2]; [7]): −0.102
- Dose.FC.LYZ.S (ISC-enriched organoids [3]; Dose 0.08 uM, primary screen): −0.008 log 2 fold change
- Dose.FC.LYZ.S (ISC-enriched organoids [3]; Dose 0.40 uM, primary screen): 0.060 log 2 fold change
- Dose.FC.LYZ.S (ISC-enriched organoids [3]; Dose 2.00 uM, primary screen): −0.020 log 2 fold change
- Dose.FC.LYZ.S (ISC-enriched organoids [3]; Dose 10.00 uM, primary screen): 0.090 log 2 fold change

SMILES: CNC(=O)c1cc(Oc2ccc(NC(=O)Nc3cc(C(C)(C)C)nn3-c3ccc4ncccc4c3)c(F)c2)ccn1 [DCC-2036 (Rebastinib)]
- Dose.FC.CTG (ISC-enriched organoids [1]; Dose 0.08 uM, ENR+CD, 6 days): 0.216 log 2 fold change
- Z.CTG (ISC-enriched organoids [1]; [12]): 0.516
- Dose.FC.CTG (ISC-enriched organoids [1]; Dose 0.40 uM, ENR+CD, 6 days): 0.218 log 2 fold change
- Z.CTG (ISC-enriched organoids [1]; [13]): 0.520
- Dose.FC.CTG (ISC-enriched organoids [1]; Dose 2.00 uM, ENR+CD, 6 days): −0.038 log 2 fold change
- Z.CTG (ISC-enriched organoids [1]; [14]): −0.091
- Dose.FC.CTG (ISC-enriched organoids [1]; Dose 10.00 uM, ENR+CD, 6 days): −0.322 log 2 fold change
- Z.CTG (ISC-enriched organoids [1]; [15]): −0.769
- Dose.FC.LYZ.NS (ISC-enriched organoids [2]; Dose 0.08 uM, ENR+CD, 6 days): 0.259 log 2 fold change
- Z.LYZ.NS (ISC-enriched organoids [2]; [12]): 2.256
- Dose.FC.LYZ.NS (ISC-enriched organoids [2]; Dose 0.40 uM, ENR+CD, 6 days): 0.128 log 2 fold change
- Z.LYZ.NS (ISC-enriched organoids [2]; [13]): 1.116
- Dose.FC.LYZ.NS (ISC-enriched organoids [2]; Dose 2.00 uM, ENR+CD, 6 days): 0.073 log 2 fold change
- Z.LYZ.NS (ISC-enriched organoids [2]; [14]): 0.637
- Dose.FC.LYZ.NS (ISC-enriched organoids [2]; Dose 10.00 uM, ENR+CD, 6 days): −0.209 log 2 fold change
- Z.LYZ.NS (ISC-enriched organoids [2]; [15]): −1.823
- Dose.FC.LYZ.S (ISC-enriched organoids [3]; Dose 0.08 uM, ENR+CD, 6 days): 0.358 log 2 fold change
- Dose.FC.LYZ.S (ISC-enriched organoids [3]; Dose 0.40 uM, ENR+CD, 6 days): 0.186 log 2 fold change
- Dose.FC.LYZ.S (ISC-enriched organoids [3]; Dose 2.00 uM, ENR+CD, 6 days): 0.054 log 2 fold change
- Dose.FC.LYZ.S (ISC-enriched organoids [3]; Dose 10.00 uM, ENR+CD, 6 days): −0.244 log 2 fold change
